According to PubChem BioAssay AID330 (DTP/NCI, 2004):
“And” between values parts separate entries of the source, which are not always exact repeats. Equal entries are not always repeated. Inconclusive results and toxic doses are left out. How the source made its calls: active means survival T/C of 150% or more; inactive means T/C below 125% in these data.

Tested on: P388 leukemia ip, CD2F1 mice, survival T/C
Experiment: NCI In Vivo Anticancer Drug Screen. Data for tumor model P388 Leukemia (intraperitoneal) in CD2F1 (CDF1) mice
Conditions: endpoint: median survival time, higher = longer survival
Outline: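 Mice carrying the transplanted tumor received test compound or vehicle. Survival was recorded in each group, and the value is the treated-group measurement divided by that of the vehicle-treated control group.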

[1] = dose: 100.0 mg/kg/injection, schedule: Q01DX001 (ip), vehicle: saline with Tween-80
[2] = dose: 200.0 mg/kg/injection, schedule: Q01DX001 (ip), vehicle: saline with Tween-80
[3] = dose: 50.0 mg/kg/injection, schedule: Q01DX009 (ip), vehicle: saline with Tween-80
[4] = dose: 100.0 mg/kg/injection, schedule: Q01DX009 (ip), vehicle: saline with Tween-80
[5] = dose: 200.0 mg/kg/injection, schedule: Q01DX009 (ip), vehicle: saline with Tween-80
[6] = dose: 50.0 mg/kg/injection, schedule: Q01DX005 (ip), vehicle: Klucel (hydroxypropylcellulose) (HPC)
[7] = dose: 100.0 mg/kg/injection, schedule: Q01DX005 (ip), vehicle: Klucel (hydroxypropylcellulose) (HPC)
[8] = dose: 60.0 mg/kg/injection, schedule: Q01DX005 (ip), vehicle: saline with Tween-80
[9] = dose: 120.0 mg/kg/injection, schedule: Q01DX005 (ip), vehicle: saline with Tween-80
[10] = dose: 240.0 mg/kg/injection, schedule: Q01DX005 (ip), vehicle: saline with Tween-80
[11] = dose: 100.0 mg/kg/injection, schedule: Q01DX009 (ip), vehicle: saline
[12] = dose: 200.0 mg/kg/injection, schedule: Q01DX009 (ip), vehicle: saline

Measured: T/C

NCCC(=O)OCN1C(=O)C2C3C=CC(C2C1=O)C1C2C(=O)N(COC(=O)CCN)C(=O)C2C31 (stereo not drawn)
inactive: dose: 12.5 mg/kg/injection, schedule: Q01DX009 (ip), vehicle: water 88 % of control | dose: 25.0 mg/kg/injection, schedule: Q01DX009 (ip), vehicle: water 102 % of control | dose: 50.0 mg/kg/injection, schedule: Q01DX009 (ip), vehicle: water 99 % of control | dose: 100.0 mg/kg/injection, schedule: Q01DX009 (ip), vehicle: water 100 % of control | dose: 200.0 mg/kg/injection, schedule: Q01DX009 (ip), vehicle: water 118 % of control

N=C(N)c1ccc(N=Nc2ccc(N)cc2N)cc1
inactive: dose: 60.0 mg/kg/injection, schedule: Q01DX005 (ip), vehicle: Klucel (hydroxypropylcellulose) (HPC) 120 % of control | dose: 120.0 mg/kg/injection, schedule: Q01DX005 (ip), vehicle: Klucel (hydroxypropylcellulose) (HPC) 124 % of control

OCCN1CCN(CC/C=C2\c3ccccc3COc3ccc(Cl)cc32)CC1
inactive: dose: 6.25 mg/kg/injection, schedule: Q04DX003 (ip), vehicle: saline 100 % of control | dose: 12.5 mg/kg/injection, schedule: Q04DX003 (ip), vehicle: saline 114 % of control and 117 % of control | dose: 25.0 mg/kg/injection, schedule: Q04DX003 (ip), vehicle: saline 110 % of control | dose: 50.0 mg/kg/injection, schedule: Q04DX003 (ip), vehicle: saline 110 % of control | dose: 100.0 mg/kg/injection, schedule: Q04DX003 (ip), vehicle: saline 97 % of control

O=C(Cc1ccccc1)NC1C(=O)N2c3c(CO)cccc3OCC12 (stereo not drawn)
inactive: dose: 50.0 mg/kg/injection, schedule: Q01DX001 (ip), vehicle: saline with Tween-80 100 % of control | [1] 90 % of control | [2] 94 % of control

Cc1cc(C)c(O)c(C(c2ccccc2)c2cc(C)cc(C)c2O)c1
inactive: [3] 99 % of control | [4] 118 % of control | [5] 115 % of control

C/C=C(\C)C(=O)N/N=C\C=C\c1ccccc1
inactive: dose: 25.0 mg/kg/injection, schedule: Q01DX005 (ip), vehicle: Klucel (hydroxypropylcellulose) (HPC) 89 % of control | [6] 92 % of control | [7] 89 % of control

C=C=CC(C)(O)c1ccc(-c2ccccc2)cc1 (stereo not drawn)
inactive: [6] 97 % of control | [7] 100 % of control | dose: 200.0 mg/kg/injection, schedule: Q01DX005 (ip), vehicle: Klucel (hydroxypropylcellulose) (HPC) 104 % of control

COC(=O)c1noc2c1CSC1=C2CS(=O)(=O)c2ccccc21
inactive: [8] 104 % of control | [9] 104 % of control | [10] 98 % of control

CC1=CC(=C2C=C(C)C(=O)C(C)=C2)C=C(C)C1=O
inactive: [11] 97 % of control and 98 % of control | [12] 91 % of control and 95 % of control | dose: 400.0 mg/kg/injection, schedule: Q01DX009 (ip), vehicle: saline 93 % of control and 94 % of control

O=C(Nc1ccc2c(O)c(N=Nc3ccc(N=Nc4ccc(S(=O)(=O)O)cc4)cc3)c(S(=O)(=O)O)cc2c1)c1ccccc1
inactive: dose: 50.0 mg/kg/injection, schedule: Q01DX009 (ip), vehicle: saline 100 % of control | [11] 95 % of control | [12] 103 % of control

O=C1OC(O)C(Cl)=C1Cl (stereo not drawn)
inactive: dose: 0.79 mg/kg/injection, schedule: Q01DX005 (ip), vehicle: saline with Tween-80 111 % of control | dose: 1.56 mg/kg/injection, schedule: Q01DX005 (ip), vehicle: saline with Tween-80 112 % of control | dose: 3.12 mg/kg/injection, schedule: Q01DX005 (ip), vehicle: saline with Tween-80 114 % of control | dose: 6.25 mg/kg/injection, schedule: Q01DX005 (ip), vehicle: saline with Tween-80 120 % of control

OCc1ccccc1Cn1ccnc1
inactive: [8] 96 % of control | [9] 93 % of control | [10] 96 % of control

Cc1ccc(Nc2ncnc3c2c(=O)n(C)c(=O)n3C)cc1C
inactive: dose: 12.5 mg/kg/injection, schedule: Q01DX005 (ip), vehicle: saline with Tween-80 100 % of control | dose: 25.0 mg/kg/injection, schedule: Q01DX005 (ip), vehicle: saline with Tween-80 100 % of control | dose: 50.0 mg/kg/injection, schedule: Q01DX005 (ip), vehicle: saline with Tween-80 86 % of control and 91 % of control | dose: 100.0 mg/kg/injection, schedule: Q01DX005 (ip), vehicle: saline with Tween-80 88 % of control | dose: 200.0 mg/kg/injection, schedule: Q01DX005 (ip), vehicle: saline with Tween-80 96 % of control

C(=N\Nc1nnc2c3cccnc3c3ccccc3c2n1)/c1ccc2c(c1)OCO2
inactive: [1] 108 % of control | [2] 104 % of control

Cn1c(=O)[nH]c(=O)c2nc(-c3ccc(Cl)cc3)cnc21
inactive: dose: 100.0 mg/kg/injection, schedule: Q04DX002 (ip), vehicle: saline with Tween-80 94 % of control | dose: 200.0 mg/kg/injection, schedule: Q04DX002 (ip), vehicle: saline with Tween-80 97 % of control | dose: 400.0 mg/kg/injection, schedule: Q04DX002 (ip), vehicle: saline with Tween-80 97 % of control

N#CC(Cc1ccccc1)c1ccc(Cl)cc1 (stereo not drawn)
inactive: dose: 50.0 mg/kg/injection, schedule: Q01DX009 (ip), vehicle: Klucel (hydroxypropylcellulose) (HPC) 106 % of control | dose: 100.0 mg/kg/injection, schedule: Q01DX009 (ip), vehicle: Klucel (hydroxypropylcellulose) (HPC) 110 % of control | dose: 200.0 mg/kg/injection, schedule: Q01DX009 (ip), vehicle: Klucel (hydroxypropylcellulose) (HPC) 104 % of control | dose: 400.0 mg/kg/injection, schedule: Q01DX009 (ip), vehicle: Klucel (hydroxypropylcellulose) (HPC) 109 % of control

C=CCNCC(O)C(F)(F)C(F)(F)C(F)(F)C(F)(F)C(F)(F)C(F)(F)F (stereo not drawn)
inactive: [8] 101 % of control | [9] 101 % of control | [10] 109 % of control

C[CH2][Sn]([CH2]C)([O]S(=O)(=O)CC12CCC(CC1=O)C2(C)C)[O]S(=O)(=O)CC12CCC(CC1=O)C2(C)C
inactive: dose: 1.56 mg/kg/injection, schedule: Q01DX009 (ip), vehicle: saline 102 % of control | dose: 3.12 mg/kg/injection, schedule: Q01DX009 (ip), vehicle: saline 119 % of control

CN(C)Cc1nc2sc3c(c2c(=O)[nH]1)CCCC3
inactive: [3] 106 % of control | [4] 108 % of control | [5] 103 % of control

CCOc1ccc(N=Nc2c(C)nn(C(=S)SC)c2OCC)cc1
inactive: dose: 60.0 mg/kg/injection, schedule: Q01DX005 (ip), vehicle: Klucel + Tween-80 95 % of control | dose: 120.0 mg/kg/injection, schedule: Q01DX005 (ip), vehicle: Klucel + Tween-80 95 % of control | dose: 240.0 mg/kg/injection, schedule: Q01DX005 (ip), vehicle: Klucel + Tween-80 94 % of control

CC(C)(C)c1cc(C(C)(C)C)c(P(C(O[Si](C)(C)C)=C(c2ccccc2)c2ccccc2)C(O[Si](C)(C)C)=C(c2ccccc2)c2ccccc2)c(C(C)(C)C)c1
inactive: [8] 94 % of control | [9] 99 % of control | [10] 93 % of control
